Where two headings read alike, the source gives them in different places.
Tests used:
[1] = Tolerance and toxicity on ingestion; type: in vivo, animals; details: for NOAEL: in vivo, po
Text: The methylsulfonylmethane is usually provided in the aninmal's normal feed rations, periodically throughout the day or on successive days, or both, e.g., for 2 to 21 days or even longer. The daily food ration appropriate for the animal being fed is supplemented with an amount of methylsulfonylmethane calculated to correspond to a predetermined amount per total body weight of the animals being fed. The exact amount of methylsulfonylmethane ingested each day is not always critical, particularly when methylsulfonylmethane administration is over an extended period of days, because the ingested methylsulfonylmethane accumulates in the body tissues and fluids, i.e., reaches an effective titer. Methylsulfonylmethane-supplemented rations providing levels of as low as 0.5-1 mg/kg animal body weight are sometimes effective and levels as high as 300 mg/kg body weight or more are well tolerated. The usual target level per individual animal is about 0.2-2.0 mg/kg body weight preferably 0.5-1.0 mg per kg body weight. Total daily supplements corresponding to up to about 1 gm/kg body weight or more, are preferably employed, depending on the degree of deficiency. Healthy animals often have methylsulfonylmethane blood levels of at least 1 ppm, and desirably, enough methylsulfonylmethane is provided to raise blood levels to above 1 ppm. The oral ingestion of amounts of methylsulfonylmethane in excess of that required to elevate blood levels is not harmful because of the extremely non-toxic nature of methylsulfonylmethane.
One can safely administer 1-2 grams/kg body wt. of methylsulfonylmethane on a daily basis (equal to 1000-2000 ppm w/w basis). One therefore builds a safely tolerated blood level of about 4000 ppm, which level is highly toxic to many infective organism yet is harmless to the host. Methylsulfonylmethane provides a unique new therapeutic approach, used alone or with concurrent, conventional therapy.

[2] = tested on: subjects in apparent good health; assay: Maintenance of good health (Example 12); type: in vivo, human
Experimental: 14 subjects of both sexes, all in apparent good health, ages 33-59, were given oral methylsulfonylmethane in amounts ranging from 250 to 500 mg daily which maintained their blood levels above 1 ppm. These individuals were continued on methylsulfonylmethane, taken as a solution in orange juice for periods of from about seven months to over one year.

[3] = tested on: eye; assay: Inflammation of the eye following accidental injury (Example 14); type: in vivo, human; details: 15% solution in isotonic saline
Text: A 15% solution of methylsulfonylmethane in isotonic saline was a soothing treatment for the eye following accidental injury due to particulate matter in the eye as dust or pollen.

[4] = tested on: sun and wind burn; assay: Sun and wind burn (Example 23); type: in vivo, human; details: 0.5-2 gm/day, about 4 hours exposure; companions severely burned
[5] = tested on: physical fatigue syndrome; assay: Post-athletic activity fatigue (Example 25); type: in vivo, human; details: 1-2 gm/day, preceding six months; usually 8-10 days
Text: The physical fatigue syndrome following intense athletic activity in competitive sports which usually persists for 8-10 days in athletes was gone in 2-3 days in individuals who had ingested methylsulfonylmethane (from 1-2 gm/day in split dosages) for the preceding six months.

[6] = tested on: Trichomonas vaginalis; assay: In vitro culture of Trichomonas vaginalis (Example 28(a)); type: cell-based, Trichomonas vaginalis Strain ATCC No. 30001
Experimental: Methylsulfonylmethane has highly variable toxicities for various nematodes. Based on this discovery, tests were conducted on several parasites adverse to the health of vertebrates
Strain ATCC No. 30001 was cultured in vitro employing diamonds tym medium. Methylsulfonylmethane was added thereto at levels varying from 5.5 to 109.3 mg/ml. At concentrations of 5.5 to 10.9 mg/ml, the methylsulfonylmethane had no effect on this protozoan.

[7] = tested on: Trichomonas vaginalis; assay: Treatment of Trichomonas vaginalis infection in subjects (Example 28(a)); type: in vivo, human
Text: Both had prior courses of therapy for this disorder without adequate response. […]
One subject was later reinfected by their sexual partner but the reinfection was cleared employing a daily douche of 5% aqueous methylsulfonylmethane for one week.

[8] = tested on: Giardia lamblia; assay: In vitro inhibition of Giardia lamblia (Example 28(b)); type: cell-based
Experimental: However, at 20 mg/ml concentration, it was strongly inhibitory and concentrations above 40 mg/ml promptly killed the organism.

[9] = tested on: arthritis; assay: Canine arthritis and other sources of pain (Example 30); type: in vivo, dog
Text: In each case the methylsulfonylmethane was admixed with the animal's food just prior to feeding.
This animal, although owned by a veterinarian, had not responded to a variety of therapeutic regimens over the previous 12 months. Methylsulfonylmethane was given to this dog in its food at a level of 1.5 grams b.i.d. X 1 month.
It was mobile but walked with obvious difficulty and discomfort. The animals was refractory to both cortisone and phenylbutazone.
The animal had not responded to either cortisone nor phenylbutazone and its condition was deteriorating rapidly. Methylsulfonylmethane was included in its diet at 1 gm/day b.i.d. After one week, the dog appeared to be pain-free.

[10] = tested on: myositis ossificans generalis; assay: Myositis ossificans generalis (Example 35); type: in vivo, human; details: one teaspoon orally in split daily doses, nearly two years
Text: Their family belongs to a group of families each with a family member suffering from the disease. They have been on one teaspoon of methylsulfonylmethane orally, in split daily doses for nearly two years. […] No other child in the group is on methylsulfonylmethane and all are deteriorating physically. The disease cause is unknown but probably is a genetic/autoimmune type of disorder.

[11] = tested on: mammary carcinoma; assay: Resistance to DMBA-induced mammary carcinoma (Example 36); type: in vivo, female rats; details: 2% by wt. in diet; Group 3; Group 2 (DMBA only) had cancers
Experimental: Forty-five female rats were stabilized to the laboratory and then divided into 3 groups of 15 each. Group 1 was designated control, Groups 2 and 3 were treated by topical application to the hair-free abdomen with a solution of the carcinogen dimethyl-benzanthracene (DMBA). All three groups were each fed a standard laboratory diet with water, ad lib. Group 3 also received in […] their standard diet 2% by wt. of methylsulfonylmethane.

[12] = tested on: epiphysitis; details: oral; cited from earlier work
[13] = 250 to 500 mg daily, seven months to over one year

SMILES: CS(C)(=O)=O [methylsulfonylmethane]
- acute and chronic toxicity ([1]; in the host's diet): remarkably low
- NOAEL ([1]; daily basis, read-out: safely administered daily dose): 1000 to 2000 mg/kg/day
- NOAEL ([1]; supplemented rations, or more, read-out: well tolerated level in rations): ≥ 300 mg/kg
- toxicity at high (greater than 1 gm/kg body wt.) blood levels ([1]; primates, at least two years): lack evidence of methylsulfonylmethane toxicity
- blood level ([2]; 250 to 500 mg daily oral): above 1 ppm
- illness during testing [2, 13]: None of the 14 became ill
- reported well-being [2, 13]: feeling better and stronger with increased endurance
- effect on the eye following accidental injury [3]: soothing
- suffering from sun and wind exposure [4]: suffered only mildly
- duration of physical fatigue syndrome [5]: 2 to 3 days
- lethal concentrations ([6]; all higher concentrations tested, to 109.3 mg/ml): > 21.9 mg/mL
- activity relative to metronidazole HCL ([6]; in vitro, based on this assay): about half
- concentration with no effect on this protozoan ([6]; in vitro, diamonds tym medium): 5.5 to 10.9 mg/mL
- outcome in subject's partner ([7]; 500 mg twice daily, two weeks): successfully treated
- reinfection ([7]; daily douche of 5% aqueous, one week): cleared
- concentration promptly killing the organism [8]: above 40 mg/ml
- concentration with no significant inhibition [8]: ≤ 1 mg/mL
- strongly inhibitory concentration [8]: 20 mg/mL
- benefit, Dog A ([9]; Dog A, 0.5 g/day b.i.d., 7 days): without apparent benefit
- time to free mobility without evident discomfort nor ataxia, Dog A ([9]; Dog A, 1.5 g/day b.i.d.): ≤ 10 days
- benefit, Dog B ([9]; Dog B, 1.5 grams b.i.d. X 1 month): no apparent benefit
- mobility over the first month, Dog C ([9]; Dog C, 0.5 grams b.i.d.): gradual improvement
- musculoskeletal restriction and discomfort in third month, Dog C ([9]; Dog C, 0.5 grams b.i.d.): neither musculoskelatal restriction nor discomfort
- pain after one week, Dog D ([9]; Dog D, 1 gm/day b.i.d.): pain-free
- state at over six months, Dog D ([9]; Dog D, 1 gm/day b.i.d.): apparently healthy and frisky, requiring no medication
- condition of the patient [10]: out of their wheelchair and is improving
- disease process ([10]; child A. Z.): stopped
- mammary carcinoma at 5 months post DMBA [11]: free of mammary carcinoma
- correction of epiphysitis [12]: rapidly corrected

Source: patent US4863748A, “Dietary products and uses comprising methylsulfonylmethane” (priority 1986, dated 1989)
